In PMC6061170, “Synthesis and biological investigations of 3β-aminotropane arylamide derivatives with atypical antipsychotic profile” (Medicinal Chemistry Research, 2018):
Counter-ions that a name gives are not always drawn. Like-named read-outs stand apart in the source and are kept apart here.

How the values were obtained:
[1] = target: T1, serotonin 5-HT2A receptors (Rattus norvegicus, UniProt P14842); experiment: Radioligand binding assay, 5-HT2A receptors
T1 construct: from tissue; host or cells: rat brain tissues

[2] = target: T2, serotonin 5-HT1A receptors (Rattus norvegicus, UniProt P19327); experiment: Radioligand binding assay, 5-HT1A receptors
T2 construct: from tissue; host or cells: rat brain tissues
T2 sequence (P19327 1-422): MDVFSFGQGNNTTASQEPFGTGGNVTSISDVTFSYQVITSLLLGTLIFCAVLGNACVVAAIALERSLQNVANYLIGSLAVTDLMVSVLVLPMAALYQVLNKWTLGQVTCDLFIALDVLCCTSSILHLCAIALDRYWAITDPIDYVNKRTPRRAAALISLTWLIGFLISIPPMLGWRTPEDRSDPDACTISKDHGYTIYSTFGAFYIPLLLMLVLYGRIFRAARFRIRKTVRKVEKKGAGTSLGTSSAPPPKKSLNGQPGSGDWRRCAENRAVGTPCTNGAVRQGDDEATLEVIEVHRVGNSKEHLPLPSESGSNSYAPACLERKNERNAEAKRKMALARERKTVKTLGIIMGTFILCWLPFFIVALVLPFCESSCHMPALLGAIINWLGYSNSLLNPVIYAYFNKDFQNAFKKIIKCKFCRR
Protocol: All compounds were tested for their affinities for 5-HT1A, 5-HT2A, and D2 receptors according to previously described procedures (Stefanowicz et al. [2016]).
Competition binding studies were performed according to a previously described procedure in rat brain tissues (Stefanowicz et al. [2016]).

dopamine D2 receptors = dopamine D2 receptors (Rattus norvegicus, UniProt P61169); experiment: Radioligand binding assay, D2 receptors
Albino Swiss mice [3] = experiment: Forced swim test; conditions: last 4 min of session
Albino Swiss mice [4] = experiment: Four-plate test
[5] = rat brain tissues, read-out: 5-HT2A IC50 [nM] ± SEM
[6] = rat brain tissues, read-out: 5-HT2A Ki [nM] ± SEM
[7] = rat brain tissues, read-out: 5-HT1A IC50 [nM] ± SEM
[8] = rat brain tissues, read-out: D2 IC50 [nM] ± SEM
[9] = rat brain tissues, read-out: D2 Ki [nM] ± SEM
[10] = rat brain tissues, read-out: 5-HT1A Ki [nM] ± SEM
[11] = 1.25 mg/kg i.p. 30 min before test
[12] = 2.5 mg/kg i.p. 30 min before test
[13] = 5 mg/kg i.p. 30 min before test

T1 sequence (P14842 whole entry): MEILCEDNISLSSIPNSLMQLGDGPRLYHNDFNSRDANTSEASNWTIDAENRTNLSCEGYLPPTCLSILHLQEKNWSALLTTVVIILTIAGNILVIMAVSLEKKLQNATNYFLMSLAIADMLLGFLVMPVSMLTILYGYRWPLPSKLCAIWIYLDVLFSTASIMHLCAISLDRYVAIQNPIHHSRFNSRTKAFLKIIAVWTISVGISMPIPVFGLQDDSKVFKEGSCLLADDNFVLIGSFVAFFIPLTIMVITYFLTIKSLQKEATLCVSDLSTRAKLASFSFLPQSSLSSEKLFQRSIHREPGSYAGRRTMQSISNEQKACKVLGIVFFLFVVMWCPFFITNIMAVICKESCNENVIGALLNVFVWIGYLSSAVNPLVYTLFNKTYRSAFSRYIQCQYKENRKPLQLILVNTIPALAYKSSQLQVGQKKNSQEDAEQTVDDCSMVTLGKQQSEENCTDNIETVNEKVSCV
dopamine D2 receptors, sequence (P61169 1-415 isoform P61169-2): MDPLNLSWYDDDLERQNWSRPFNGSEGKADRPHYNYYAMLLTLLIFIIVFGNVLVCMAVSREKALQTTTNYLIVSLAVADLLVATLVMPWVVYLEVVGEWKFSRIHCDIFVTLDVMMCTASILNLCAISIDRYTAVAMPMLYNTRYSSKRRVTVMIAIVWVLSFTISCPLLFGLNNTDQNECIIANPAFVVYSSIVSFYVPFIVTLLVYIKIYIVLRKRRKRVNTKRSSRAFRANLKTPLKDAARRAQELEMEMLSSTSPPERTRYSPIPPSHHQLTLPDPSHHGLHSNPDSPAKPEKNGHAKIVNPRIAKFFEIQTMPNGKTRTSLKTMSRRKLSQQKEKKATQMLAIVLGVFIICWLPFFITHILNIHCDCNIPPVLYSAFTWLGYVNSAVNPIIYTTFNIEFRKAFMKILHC

SMILES	melting point [°C]	IC50 [1, 5] [nM]	Ki [1, 6] [nM]	Ki [2] [nM]	IC50 [2, 7] [nM]	Ki (dopamine D2 receptors) [nM]	IC50 (dopamine D2 receptors; [8]) [nM]	Ki (dopamine D2 receptors; [9]) [nM]	Ki [2, 10] [nM]	other results
Cc1ccc(CN2C3CCC2CC(NC(=O)c2ccc4ccccc4n2)C3)cc1 (stereo not drawn) (as salt: oxalate) [Compound 12i, N-[8-(4-methylbenzyl)-8-azabicyclo[3.2.1]oct-3β-yl)]-quinoline-2-carboxamide oxalate]	215 to 215.4	–	–	–	–	–	–	–	–	–
Cc1ccccc1CN1C2CCC1CC(NC(=O)c1ccc3ccccc3n1)C2 (stereo not drawn) [Compound 12a]	120.8 to 121.4	> 10000	> 10000	46.6 ± 2.2	140 ± 6.7	52 ± 4	263 ± 20.5	–	–	–
Cc1ccccc1CN1C2CCC1CC(NC(=O)c1cnc3ccccc3c1)C2 (stereo not drawn) [Compound 12b]	179.2 to 180.2	3780 ± 348	1030 ± 94	81.5 ± 5	244 ± 14.9	–	1630 ± 23	326 ± 4.5	–	–
Cc1ccccc1CN1C2CCC1CC(NC(=O)c1ccc3ncccc3c1)C2 (stereo not drawn) [Compound 12c]	211.4 to 212.7	> 10000	> 10000	–	1350 ± 159	–	1270 ± 63	254 ± 12.8	450 ± 53	–
COc1cc(C(=O)NC2CC3CCC(C2)N3Cc2ccccc2C)nc2ccccc12 (stereo not drawn) [Compound 12d]	54.5 to 55.9	> 10000	> 10000	34 ± 1.7	102 ± 4.9	–	> 10000	> 10000	–	Immobility time (s) Mean ± SEM (Albino Swiss mice [3]; [11]): 144.22 ± 14.5 s; Immobility time (s) Mean ± SEM (Albino Swiss mice [3]; [12]): 113.44 ± 14.9 s; Immobility time (s) Mean ± SEM (Albino Swiss mice [3]; [13]): 150.8 ± 11.4 F(3,32) = 5.5680; NS s; Number of punished crossings /1 min Mean ± SEM (Albino Swiss mice [4]; [12]): 3.3 ± 0.3 crossings/1 min; Number of punished crossings /1 min Mean ± SEM (Albino Swiss mice [4]; [13]): 4.8 ± 0.3 crossings/1 min; Number of punished crossings /1 min Mean ± SEM (Albino Swiss mice [4]; 10 mg/kg i.p. 30 min before test): 4.7 ± 0.8 F(3,36) = 3.1652; p < 0.05 crossings/1 min
Cc1cccc(CN2C3CCC2CC(NC(=O)c2cnc4ccccc4c2)C3)c1 (stereo not drawn) [Compound 12f]	194 to 194.7	5290 ± 148	1440 ± 40.5	84.5 ± 3.4	255 ± 9.6	–	2730 ± 202	546 ± 40.2	–	–
Cc1cccc(CN2C3CCC2CC(NC(=O)c2ccc4ncccc4c2)C3)c1 (stereo not drawn) [Compound 12g]	174.4 to 175.5	> 10000	> 10000	–	867 ± 29.7	–	1370 ± 81.8	275 ± 16.5	289 ± 9.9	–
COc1cc(C(=O)NC2CC3CCC(C2)N3Cc2cccc(C)c2)nc2ccccc12 (stereo not drawn) [Compound 12h]	116.1 to 118.3	> 10000	> 10000	21 ± 2	–	–	2510 ± 271	503 ± 54.5	–	IC50 [2]: 62.8 ± 6.2 nM; Immobility time (s) Mean ± SEM (Albino Swiss mice [3]; 0.625 mg/kg i.p. 30 min before test): 163.29 ± 10.7 s; Immobility time (s) Mean ± SEM (Albino Swiss mice [3]; [11]): 134.78 ± 12.9 s; Immobility time (s) Mean ± SEM (Albino Swiss mice [3]; [12]): 185.00 ± 15.0 F(3,30) = 3.5680; p < 0.05 s; Number of punished crossings /1 min Mean ± SEM (Albino Swiss mice [4]; [11]): 5.3 ± 0.3; p < 0.001 crossings/1 min; Number of punished crossings /1 min Mean ± SEM (Albino Swiss mice [4]; [12]): 5.5 ± 0.5; p < 0.001 crossings/1 min; Number of punished crossings /1 min Mean ± SEM (Albino Swiss mice [4]; [13]): 2.9 ± 0.3 F(3,36) = 17.202; p < 0.00001 crossings/1 min; increase of punished crossings vs. respective control group (Albino Swiss mice [4]; 1.25 and 2.5 mg/kg i.p.): ~60%
Cc1ccc(CN2C3CCC2CC(NC(=O)c2cnc4ccccc4c2)C3)cc1 (stereo not drawn) [Compound 12j]	219.5 to 220.8	> 10000	> 10000	–	493 ± 44.5	45.3 ± 7.5	227 ± 37.6	–	164 ± 15	–
Cc1ccc(CN2C3CCC2CC(NC(=O)c2ccc4ncccc4c2)C3)cc1 (stereo not drawn) [Compound 12k]	211.9 to 213	> 10000	> 10000	–	1530 ± 58	34.2 ± 0.8	172 ± 5	–	511 ± 19	–
O=C(NC1CC2CCC(C1)N2Cc1ccccn1)c1ccc2ccccc2n1 (stereo not drawn) [Compound 12l]	150.2 to 151	> 10000	> 10000	–	665 ± 14.3	–	3080 ± 350	616 ± 70.3	221 ± 4.7	–
O=C(NC1CC2CCC(C1)N2Cc1ccccn1)c1cnc2ccccc2c1 (stereo not drawn) [Compound 12m]	169.4 to 170.5	> 10000	> 10000	–	850 ± 135	–	> 10000	> 10000	283 ± 45	–
O=C(NC1CC2CCC(C1)N2Cc1ccccn1)c1ccc2ncccc2c1 (stereo not drawn) [Compound 12n]	193.7 to 194.5	–	–	> 10000	–	> 10000	–	–	–	IC50 [1]: > 10000 nM; Ki [1]: > 10000 nM; IC50 [2]: > 10000 nM; IC50 (dopamine D2 receptors): > 10000 nM
COc1cc(C(=O)NC2CC3CCC(C2)N3Cc2ccccn2)nc2ccccc12 (stereo not drawn) [Compound 12o]	132.5 to 133	> 10000	> 10000	–	453 ± 12.6	–	> 10000	> 10000	151 ± 4.1	–
O=C(NC1CC2CCC(C1)N2Cc1cccnc1)c1ccc2ccccc2n1 (stereo not drawn) [Compound 12p]	143 to 143.4	> 10000	> 10000	–	3250 ± 122	–	5440 ± 1030	1090 ± 205	1080 ± 40.5	–
O=C(NC1CC2CCC(C1)N2Cc1cccnc1)c1cnc2ccccc2c1 (stereo not drawn) [Compound 12q]	138.3 to 146.2	–	–	> 10000	–	> 10000	–	–	–	IC50 [1]: > 10000 nM; Ki [1]: > 10000 nM; IC50 [2]: > 10000 nM; IC50 (dopamine D2 receptors): > 10000 nM
O=C(NC1CC2CCC(C1)N2Cc1cccnc1)c1ccc2ncccc2c1 (stereo not drawn) [Compound 12r]	158.3 to 162.5	–	–	> 10000	–	> 10000	–	–	–	IC50 [1]: > 10000 nM; Ki [1]: > 10000 nM; IC50 [2]: > 10000 nM; IC50 (dopamine D2 receptors): > 10000 nM
COc1cc(C(=O)NC2CC3CCC(C2)N3Cc2cccnc2)nc2ccccc12 (stereo not drawn) [Compound 12s]	162.6 to 165.5	> 10000	> 10000	–	3750 ± 264	–	> 10000	> 10000	1250 ± 88	–
O=C(NC1CC2CCC(C1)N2Cc1ccncc1)c1ccc2ccccc2n1 (stereo not drawn) [Compound 12t]	143 to 145.7	> 10000	> 10000	–	2430 ± 31	–	> 10000	> 10000	809 ± 10.5	–
O=C(NC1CC2CCC(C1)N2Cc1ccncc1)c1cnc2ccccc2c1 (stereo not drawn) [Compound 12u]	69.5 to 72	–	–	> 10000	–	> 10000	–	–	–	IC50 [1]: 4528 ± 22.5 nM; Ki [1]: 1229 ± 6 nM; IC50 [2]: > 10000 nM; IC50 (dopamine D2 receptors): > 10000 nM
O=C(NC1CC2CCC(C1)N2Cc1ccncc1)c1ccc2ncccc2c1 (stereo not drawn) [Compound 12v]	182 to 183.3	–	–	> 10000	–	> 10000	–	–	–	IC50 [1]: > 10000 nM; Ki [1]: > 10000 nM; IC50 [2]: > 10000 nM; IC50 (dopamine D2 receptors): > 10000 nM
COc1cc(C(=O)NC2CC3CCC(C2)N3Cc2ccncc2)nc2ccccc12 (stereo not drawn) [Compound 12w]	52 to 55	> 10000	> 10000	–	942 ± 52.9	–	> 10000	> 10000	314 ± 18	–
Nc1cccc(CN2C3CCC2CC(NC(=O)c2ccc4ccccc4c2)C3)c1 (stereo not drawn) [Compound 19b]	165.4 to 166.6	766 ± 48.4	208 ± 13.2	–	862 ± 49.5	–	1560 ± 19.9	312 ± 3.9	286 ± 16.4	–
Nc1ccc(CN2C3CCC2CC(NC(=O)c2ccc4ccccc4c2)C3)cc1 (stereo not drawn) [Compound 19c]	201.6 to 208.8	4580 ± 199	1240 ± 54	–	4040 ± 469	–	682 ± 42.7	136 ± 8.5	1340 ± 156	–
CN1C(=O)CN=C(c2ccccc2)c2cc(Cl)ccc21 [Diazepam, reference compound]	–	–	–	–	–	–	–	–	–	Number of punished crossings /1 min Mean ± SEM (Albino Swiss mice [4]; diazepam 1.25 mg/kg, 60 min before test): 5.8 ± 0.3; p < 0.01 crossings/1 min; Number of punished crossings /1 min Mean ± SEM (Albino Swiss mice [4]; diazepam 2.5 mg/kg, 60 min before test): 6.4 ± 0.5; p < 0.01 crossings/1 min; Number of punished crossings /1 min Mean ± SEM (Albino Swiss mice [4]; diazepam 5 mg/kg, 60 min before test): 6.6 ± 0.4; p < 0.05 F(3,36) = 6.455; p < 0.01 crossings/1 min
CN(C)CCCN1c2ccccc2CCc2ccccc21 [Imipramine, reference compound]	–	–	–	–	–	–	–	–	–	Immobility time (s) Mean ± SEM (Albino Swiss mice [3]; [13]): 170.42 ± 10.9 s; Immobility time (s) Mean ± SEM (Albino Swiss mice [3]; 20 mg/kg i.p. 30 min before test): 77.81 ± 12.2; p < 0.001 F(3,36) = 16.7570; p < 0.0001 s
